Experiments:
[1] = target: T1, PTP1B (Homo sapiens, UniProt P18031); experiment: pNPP hydrolysis by PTP1B; type: biochemical; conditions: substrate pNPP
T1 construct: made in house
T1 sequence (P18031 1-435): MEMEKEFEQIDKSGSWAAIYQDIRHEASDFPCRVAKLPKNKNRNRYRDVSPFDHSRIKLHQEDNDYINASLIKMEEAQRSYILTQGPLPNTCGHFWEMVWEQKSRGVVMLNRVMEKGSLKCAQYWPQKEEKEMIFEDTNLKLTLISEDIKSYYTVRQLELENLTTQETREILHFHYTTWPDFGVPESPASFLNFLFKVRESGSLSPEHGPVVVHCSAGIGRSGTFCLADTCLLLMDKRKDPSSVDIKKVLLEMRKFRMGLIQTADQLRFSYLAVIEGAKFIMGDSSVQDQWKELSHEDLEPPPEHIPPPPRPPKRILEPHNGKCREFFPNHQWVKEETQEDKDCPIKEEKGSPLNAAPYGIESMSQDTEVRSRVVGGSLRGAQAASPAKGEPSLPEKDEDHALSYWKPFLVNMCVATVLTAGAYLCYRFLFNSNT
Procedure: The catalytic domain of human Eyes Absent 2 was similarly sub-cloned as a poly-histidine fusion construct in the vector pDEST-527. Fusion protein was purified by Ni-NTA chromatography and followed by size-exclusion chromatography over a Superdex-75 column. The relative purity of protein samples was determined using SDS-PAGE. PTP1B was purified as described previously.
(§1) Compounds were dissolved in DMSO and diluted as needed. […] Reactions were incubated at 30°C for 30 minutes and quenched with 100 mM EDTA pH 10. IC50 values were then calculated directly from regression curves using PRISM. All reported values are the mean of two independent experiments.

[2] = system: MCF10A-EYA2 cells; experiment: Transwell migration of MCF10A cells over-expressing EYA2; type: cell-based; conditions: for effect on migration of MCF10A(EYA2) cells: 7.5 μM
Procedure: Human umbilical vein endothelial cells (HUVECs) were purchased from Lonza (Walkersville, MD) and maintained in the endothelial cell growth medium (PromoCell, Heidelberg, Germany), under a 5% CO2 atmosphere. MCF10A cells from ATCC were stably transfected with either pcDNA 3.2/V5-DEST (vector control), V5-EYA2 or V5-EYA2(mut). Transwell migration experiments were performed as previously described.

[3] = target: T2, Eya3(ED) (Mus musculus, UniProt P97480); experiment: pNPP hydrolysis by the catalytic domain of Eya3; type: biochemical
T2 construct: The catalytic domain (ED) of mouse Eyes Absent 3 (Eya3(223–510)) was purified; made in house
T2 sequence (P97480 223-510): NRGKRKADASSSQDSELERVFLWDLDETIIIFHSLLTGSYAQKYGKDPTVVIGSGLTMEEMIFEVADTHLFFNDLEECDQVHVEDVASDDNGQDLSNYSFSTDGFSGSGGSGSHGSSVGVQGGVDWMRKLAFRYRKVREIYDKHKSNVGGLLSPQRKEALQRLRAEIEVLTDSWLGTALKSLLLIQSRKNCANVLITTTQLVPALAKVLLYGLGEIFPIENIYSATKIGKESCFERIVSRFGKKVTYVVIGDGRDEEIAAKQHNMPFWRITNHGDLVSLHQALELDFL
Text: (§2) The catalytic domain (ED) of mouse Eyes Absent 3 (Eya3(223–510)) was purified as described before. Human Eyes Absent 3 isoform 2 (representing the major species identified in human cell lines by mass spectrometry and residues 127–573 of NM_001990, isoform 1) was sub-cloned into pDEST565 to express a poly-histidine- Glutathione-S-transferase (His-GST) tagged fusion protein with a TVMV protease site. The protein was purified by glutathione-S-transferase affinity chromatography followed by TVMV cleavage, Ni-NTA chromatography, and finally size exclusion chromatography.
The NCI Diversity Set II was obtained from the NCI in 96-well trays from the NIH Molecular Libraries Program and stored as 10 mM stocks in DMSO. An initial manual screen was conducted using the previously described p-nitrophenylphosphate assay and mouse Eya3(223–510) in a reaction mixture containing 20 mM MES pH 6, 2 mM MgCl2, 125 μM inhibitor, 3.4 mM para-nitrophenol phosphate (pNPP) and 0.01 μg/µL enzyme.
as §1

[4] = cited from earlier work
[5] = system: urate transporter SLC22A12 (URAT1); design: method as in PMID 21272127; conditions: cited from earlier work
[6] = target: T3, human EYA3 (Homo sapiens, UniProt Q99504); experiment: pNPP hydrolysis by full-length EYA3; type: biochemical
T3 construct: residues 127–573 of NM_001990, isoform 1; His-GST (poly-histidine, glutathione-S-transferase) with TVMV protease site (cleaved yes); made in house
T3 sequence (Q99504 127-573): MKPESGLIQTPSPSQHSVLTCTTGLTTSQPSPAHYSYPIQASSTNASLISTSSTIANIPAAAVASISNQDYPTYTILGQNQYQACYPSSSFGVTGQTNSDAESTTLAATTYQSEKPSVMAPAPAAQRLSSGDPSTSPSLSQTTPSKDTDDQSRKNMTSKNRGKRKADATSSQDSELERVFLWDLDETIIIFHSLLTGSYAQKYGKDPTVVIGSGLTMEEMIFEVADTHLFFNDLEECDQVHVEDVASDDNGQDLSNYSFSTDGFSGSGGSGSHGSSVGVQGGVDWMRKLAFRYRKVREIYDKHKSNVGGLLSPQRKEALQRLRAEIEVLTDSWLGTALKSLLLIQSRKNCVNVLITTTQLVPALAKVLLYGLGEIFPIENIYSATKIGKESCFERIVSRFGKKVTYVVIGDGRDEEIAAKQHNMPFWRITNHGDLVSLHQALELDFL
Text: as §2, with “chromatography. […]” for “chromatography.”
as §1

[7] = system: zebrafish embryos; experiment: Analysis of zebrafish vasculature, Tg(kdrl:EGFP) embryos; type: in vivo; conditions: exposure from about 5 hpf, analysis at 28–30 hpf
Procedure: Tg(kdrl:EGFP)^s843 zebrafish line was used for vascular analysis. Embryos were maintained in fish water until the 50% epiboly stage (5.25 hpf) and were transferred into wells of 24-well plate containing the inhibitors in fish water. All incubation was performed at 28.5°C. The analysis for vascular defects was performed at the 28–30 hpf stages, and embryos were imaged using a fluorescence microscope.

mode of inhibition of Eya3(ED) ([3]; pNPP substrate titration)	inhibitory effect in the presence of detergent ([6]; 0.01% Triton X-100)	SMILES	IC50 [1]	effect on migration of MCF10A(EYA2) cells [2]	half-life [4]	inhibition of URAT1 [5]	effect on the developing vasculature [7]	reduction of cell motility ([2]; 1 μM (lowest concentration tested), MCF10A-EYA2)	IC50 ([3]; substrate pNPP 3.4 mM, pH 6, 30°C, 30 minutes)	IC50 ([6]; full-length human EYA3, substrate pNPP)
uncompetitive inhibitor	inhibitory effect was retained	CCc1oc2ccccc2c1C(=O)c1cc(Br)c(O)c(Br)c1 [Compound 1, Benzbromarone]	53.8 µM	significantly inhibited cell migration	about 3 hours	inhibition of the urate transporter SLC22A12 (URAT1)	significant reduction of intersegmental vessels even at the lowest dose tested (0.25 μM)	–	–	–
–	–	CCc1oc2ccccc2c1C(=O)c1ccc(O)cc1 [Compound 1a, Benzarone]	> 150 µM	significantly inhibited cell migration	about 3 hours	inhibition of the urate transporter SLC22A12 (URAT1)	reduced the number of intersegmental vessels, but were less potent	over 50%	19.2 µM	17 µM
